# Test results reported in patent US10633419B2, “Immunomodulators” (BRISTOL-MYERS SQUIBB COMPANY, priority 2014, dated 2020).
# Positions of bridges follow the written chain, without caps; N, C: chain ends. Non-standard residues stand in square brackets, D forms with d. Residues, ends and D or L forms follow the SMILES beside them. *: point of attachment. X22 = CCCCCCCCCCCCCC(=O)N[C@H](CCC(=O)NCCCC[C@H](NC(=O)CCC(=O)NCCCOCCOCCOCCCN*)C(N)=O)C(=O)O; δOrn(Nα-Octadecanedioyl) = O=C(O)CCCCCCCCCCCCCCCCC(=O)N[C@@H](CCCN*)C(=O)O; εLys(α-Octadecanedioyl) = O=C(O)CCCCCCCCCCCCCCCCC(=O)N[C@@H](CCCCN*)C(=O)O; Trp(1-CH2COOH) = N[C@@H](Cc1cn(CC(=O)O)c2ccccc12)C(=O)O; X27 = CCCCCCCCCCCCCCCCNC(=O)CCC(=O)NCCCOCCOCCOCCCN*; X9 = O=C(O)CCCCCCCCCCCCCCCCC(=O)N[C@@H](CCN*)C(=O)O; d(cisHyp) = O=C(O)[C@H]1C[C@@H](O)CN1; NH(CH2)12COOH = O=C(O)CCCCCCCCCCCCN*; Bta = N[C@@H](Cc1csc2ccccc12)C(=O)O; Aha = [N-]=[N+]=NCC[C@H](N)C(=O)O; Palmitoyl = CCCCCCCCCCCCCCCC(=O)*; Hyp = O=C(O)[C@@H]1C[C@@H](O)CN1; NMeNle = CCCC[C@H](NC)C(=O)O; Dap(Me) = CNC[C@H](N)C(=O)O; Pip = O=C(O)[C@@H]1CCCCN1; NMeA = CN[C@@H](C)C(=O)O; Pra = C#CC[C@H](N)C(=O)O; Dab = NCC[C@H](N)C(=O)O; Dap = NC[C@H](N)C(=O)O
# Biological target: T1, PD-L1 (Homo sapiens, UniProt Q9NZQ7)
# T1 construct: hPDL1(19-239)-TVMV-His; made in house; host or cells: HEK293T
# T1 sequence (Q9NZQ7 with tags, fused parts or gaps): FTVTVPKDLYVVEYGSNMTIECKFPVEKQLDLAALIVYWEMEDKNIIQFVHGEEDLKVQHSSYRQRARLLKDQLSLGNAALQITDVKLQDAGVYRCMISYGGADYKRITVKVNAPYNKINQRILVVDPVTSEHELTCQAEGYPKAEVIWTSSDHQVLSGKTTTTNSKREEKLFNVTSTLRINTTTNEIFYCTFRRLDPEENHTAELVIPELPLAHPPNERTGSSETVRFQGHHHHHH
# Assay: PD-1/PD-L1 Homogenous Time-Resolved Fluorescence (HTRF) binding assay (PD-1-Ig/PD-L1-His)
# Details: inhibition of PD-1-Ig binding to PD-L1-TVMV-His; value given as range class; read-out: HTRF IC50
# Procedure, shortened: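 Inhibitors pre-incubated 15 min with PD-L1-His (10 nM final), then PD-1-Ig (20 nM final) added for 15 min in dPBS/0.1% BSA/0.05% Tween-20. Eu-cryptate anti-Ig (1 nM) and APC anti-His (20 nM) added, 30 min equilibration, 665/620 nm HTRF ratio read.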
row,Compound,IC50 [nM]
1,CCCCCCCCCCCCCC(=O)N[C@H](CCC(=O)NCCCC[C@H](NC(=O)CCC(=O)NCCCOCCOCCOCCCNC(=O)CNC(=O)[C@@H]1CSCC(=O)N[C@@H](Cc2ccc(O)cc2)C(=O)N(C)[C@@H](C)C(=O)N[C@@H](CC(=O)O)C(=O)N2CCC[C@H]2C(=O)N[C@@H](Cc2cnc[nH]2)C(=O)N[C@@H](CC(C)C)C(=O)N2C[C@H](O)C[C@H]2C(=O)N[C@@H](Cc2c[nH]c3ccccc23)C(=O)N[C@@H](CO)C(=O)N[C@@H](Cc2c[nH]c3ccccc23)C(=O)N(C)[C@@H](CCCC)C(=O)N(C)[C@@H](CCCC)C(=O)N[C@@H](CCCNC(=N)N)C(=O)N1)C(N)=O)C(=O)O [Example 11125] ({CH2CO}-Y[NMeA]DPHL[Hyp]WSW[NMeNle][NMeNle]RCG-X22; thioether N-14),10 to 99
2,CCCCCCCCCCCCCCCCNC(=O)CCC(=O)NCCCOCCOCCOCCCNC(=O)CNC(=O)[C@@H]1CSCC(=O)N[C@@H](Cc2ccc(O)cc2)C(=O)N(C)[C@@H](C)C(=O)N[C@@H](CC(=O)O)C(=O)N2CCC[C@H]2C(=O)N[C@@H](Cc2cnc[nH]2)C(=O)N[C@@H](CC(C)C)C(=O)N2C[C@H](O)C[C@H]2C(=O)N[C@@H](Cc2c[nH]c3ccccc23)C(=O)N[C@@H](CO)C(=O)N[C@@H](Cc2c[nH]c3ccccc23)C(=O)N(C)[C@@H](CCCC)C(=O)N(C)[C@@H](CCCC)C(=O)N[C@@H](CCCNC(=N)N)C(=O)N1 [Example 11124] ({CH2CO}-Y[NMeA]DPHL[Hyp]WSW[NMeNle][NMeNle]RCG-X27; thioether N-14),100 to 1600
3,CCCC[C@H]1C(=O)N(C)[C@@H](CCCC)C(=O)N[C@@H](CC(C)C)C(=O)N[C@H](C(=O)NCC(=O)NCC(=O)N[C@@H](Cc2cn(CC[C@H](NC(=O)CCCCCCCCCCCCCCCCC(=O)O)C(=O)O)nn2)C(=O)O)CSCC(=O)N[C@@H](Cc2ccc(O)cc2)C(=O)N(C)[C@@H](C)C(=O)N[C@@H](CC(N)=O)C(=O)N2CCC[C@H]2C(=O)N[C@@H](CN)C(=O)N[C@@H](CC(C)C)C(=O)N2C[C@H](O)C[C@H]2C(=O)N[C@@H](Cc2c[nH]c3ccccc23)C(=O)N[C@@H](CCN)C(=O)N[C@@H](Cc2cn(CC(=O)O)c3ccccc23)C(=O)N1C [Example 13122],100 to 1600
4,CCCC[C@H]1C(=O)N(C)[C@@H](CCCC)C(=O)N[C@@H](CC(C)C)C(=O)N[C@H](C(=O)NCC(=O)NCCCC[C@H](NC(=O)CCCCCCCCCCCCCCCCC(=O)O)C(=O)O)CSCC(=O)N[C@@H](Cc2ccc(O)cc2)C(=O)N(C)[C@@H](C)C(=O)N[C@@H](CC(N)=O)C(=O)N2CCC[C@H]2C(=O)N[C@@H](CN)C(=O)N[C@@H](CC(C)C)C(=O)N2C[C@H](O)C[C@@H]2C(=O)N[C@@H](Cc2c[nH]c3ccccc23)C(=O)N[C@@H](CCN)C(=O)N[C@@H](Cc2cn(CC(=O)O)c3ccccc23)C(=O)N1C [Example 11141] ({CH2CO}-Y[NMeA]NP[Dap]L[d(cisHyp)]W[Dab][Trp(1-CH2COOH)][NMeNle][NMeNle]LCG-{εLys(α-Octadecanedioyl)}; thioether N-14),10 to 99
5,CCCCCCCCCCCCCCCC(=O)NCCCC[C@H](NC(=O)[C@@H]1CSCC(=O)N[C@@H](Cc2ccc(O)cc2)C(=O)N(C)[C@@H](C)C(=O)N[C@@H](CC(N)=O)C(=O)N2CCC[C@H]2C(=O)N[C@@H](CCN)C(=O)N[C@@H](CC(C)C)C(=O)N2C[C@H](O)C[C@H]2C(=O)N[C@@H](Cc2c[nH]c3ccccc23)C(=O)N[C@@H](CO)C(=O)N[C@@H](Cc2c[nH]c3ccccc23)C(=O)N(C)[C@@H](CCCC)C(=O)N(C)[C@@H](CCCC)C(=O)N[C@@H](CCCNC(=N)N)C(=O)N1)C(N)=O [Example 11019] ({CH2CO}-Y[NMeA]NP[Dab]L[Hyp]WSW[NMeNle][NMeNle]RCK(Palmitoyl)-NH2; thioether N-14),100 to 1600
6,CCCC[C@H]1C(=O)N(C)[C@@H](CCCC)C(=O)N[C@@H](CC(C)C)C(=O)C[C@H](C(=O)NCC(=O)N[C@@H](CC(=O)O)C(=O)NC[C@H](NC(=O)CCCCCCCCCCCCCCCCC(=O)O)C(=O)O)CSCC(=O)N[C@@H](Cc2ccc(O)cc2)C(=O)N(C)[C@@H](C)C(=O)N[C@@H](CC(N)=O)C(=O)N2CCC[C@H]2C(=O)N[C@@H](CN)C(=O)N[C@@H](CC(C)C)C(=O)N2C[C@H](O)C[C@H]2C(=O)N[C@@H](Cc2c[nH]c3ccccc23)C(=O)N[C@@H](CCN)C(=O)N[C@@H](Cc2cn(CC(=O)O)c3ccccc23)C(=O)N1C [Example 11185],10 to 99
7,CCCC[C@H]1C(=O)N(C)[C@@H](CCCC)C(=O)N[C@@H](CC(C)C)C(=O)N[C@H](C(=O)NCC(=O)NCC(=O)NCC(=O)NCCCCCCCCCCCCC(=O)O)CSCC(=O)N[C@@H](Cc2ccc(O)cc2)C(=O)N(C)[C@@H](C)C(=O)N[C@@H](CC(N)=O)C(=O)N2CCC[C@H]2C(=O)N[C@@H](CN)C(=O)N[C@@H](CC(C)C)C(=O)N2C[C@H](O)C[C@H]2C(=O)N[C@@H](Cc2c[nH]c3ccccc23)C(=O)N[C@@H](CCN)C(=O)N[C@@H](Cc2cn(CC(=O)O)c3ccccc23)C(=O)N1C [Example 11215] ({CH2CO}-Y[NMeA]NP[Dap]L[Hyp]W[Dab][Trp(1-CH2COOH)][NMeNle][NMeNle]LCGGG-{NH(CH2)12COOH}; thioether N-14),10 to 99
8,CCCC[C@H]1C(=O)N(C)[C@@H](CCCC)C(=O)N[C@@H](CC(C)C)C(=O)N[C@H](C(=O)NCC(=O)N[C@@H](CC(=O)O)C(=O)N[C@@H](CC(=O)O)C(=O)NCCCCCCCCCCCCC(=O)O)CSCC(=O)N[C@@H](Cc2ccc(O)cc2)C(=O)N(C)[C@@H](C)C(=O)N[C@@H](CC(=O)O)C(=O)N2CCC[C@H]2C(=O)N[C@@H](Cc2cnc[nH]2)C(=O)N[C@@H](CCCCN)C(=O)N2C[C@H](O)C[C@H]2C(=O)N[C@@H](Cc2c[nH]c3ccccc23)C(=O)N[C@@H](CCCCN)C(=O)N[C@@H](Cc2cn(CC(=O)O)c3ccccc23)C(=O)N1C [Example 11218] ({CH2CO}-Y[NMeA]DPHK[Hyp]WK[Trp(1-CH2COOH)][NMeNle][NMeNle]LCGDD-{NH(CH2)12COOH}; thioether N-14),10 to 99

# Other lines, results leading:
row,IC50 [nM],Compound
1,0.3 to 9.9,CCCC[C@H]1C(=O)N(C)[C@@H](CCCC)C(=O)N[C@@H](CCCNC(=N)N)C(=O)N[C@H](C(=O)NCC(=O)NCC(=O)N[C@@H](CCN=[N+]=[N-])C(N)=O)CSCC(=O)N[C@@H](Cc2ccc(O)cc2)C(=O)N(C)[C@@H](C)C(=O)N[C@@H](CC(N)=O)C(=O)N2CCC[C@H]2C(=O)N[C@@H](CN)C(=O)N[C@@H](CC(C)C)C(=O)N2C[C@H](O)C[C@H]2C(=O)N[C@@H](Cc2c[nH]c3ccccc23)C(=O)N[C@@H](CO)C(=O)N[C@@H](Cc2csc3ccccc23)C(=O)N1C [INT 1300C] ({CH2CO}-Y[NMeA]NP[Dap]L[Hyp]WS[Bta][NMeNle][NMeNle]RCGG[Aha]-NH2; thioether N-14)
2,100 to 1600,CCCC[C@H]1C(=O)N(C)[C@@H](CCCC)C(=O)N[C@@H](CC(C)C)C(=O)N[C@H](C(=O)NCC(=O)N[C@@H](CC(=O)NCCC[C@H](NC(=O)CCCCCCCCCCCCCCCCC(=O)O)C(=O)O)C(=O)O)CSCC(=O)N[C@@H](Cc2ccc(O)cc2)C(=O)N2CCCC[C@H]2C(=O)N[C@@H](CC(N)=O)C(=O)N2CCC[C@H]2C(=O)N[C@@H](CN)C(=O)N[C@@H](CC(C)C)C(=O)N2C[C@H](O)C[C@H]2C(=O)N[C@@H](Cc2c[nH]c3ccccc23)C(=O)N[C@@H](CCN)C(=O)N[C@@H](Cc2cn(CC(=O)O)c3ccccc23)C(=O)N1C [Example 13141] ({CH2CO}-Y[Pip]NP[Dap]L[Hyp]W[Dab][Trp(1-CH2COOH)][NMeNle][NMeNle]LCGD(δOrn(Nα-Octadecanedioyl))-OH; thioether N-14)
3,100 to 1600,CCCC[C@H]1C(=O)N(C)[C@@H](CCCC)C(=O)N[C@@H](CC(C)C)C(=O)N[C@H](C(=O)NCC(=O)N[C@@H](CCC(=O)NCC[C@H](NC(=O)CCCCCCCCCCCCCCCCC(=O)O)C(=O)O)C(=O)O)CSCC(=O)N[C@@H](Cc2ccc(O)cc2)C(=O)N2CCCC[C@H]2C(=O)N[C@@H](CC(N)=O)C(=O)N2CCC[C@H]2C(=O)N[C@@H](CN)C(=O)N[C@@H](CC(C)C)C(=O)N2C[C@H](O)C[C@H]2C(=O)N[C@@H](Cc2c[nH]c3ccccc23)C(=O)N[C@@H](CCN)C(=O)N[C@@H](Cc2cn(CC(=O)O)c3ccccc23)C(=O)N1C [Example 13143] ({CH2CO}-Y[Pip]NP[Dap]L[Hyp]W[Dab][Trp(1-CH2COOH)][NMeNle][NMeNle]LCGE(X9)-OH; thioether N-14)
4,0.3 to 9.9,C#CC[C@H](NC(=O)CNC(=O)[C@@H]1CSCC(=O)N[C@@H](Cc2ccc(O)cc2)C(=O)N2CCCC[C@H]2C(=O)N[C@@H](CC(N)=O)C(=O)N2CCC[C@H]2C(=O)N[C@@H](CNC)C(=O)N[C@@H](CC(C)C)C(=O)N2C[C@H](O)C[C@H]2C(=O)N[C@@H](Cc2c[nH]c3ccccc23)C(=O)N[C@@H](CCN)C(=O)N[C@@H](Cc2cn(CC(=O)O)c3ccccc23)C(=O)N(C)[C@@H](CCCC)C(=O)N(C)[C@@H](CCCC)C(=O)N[C@@H](CCC(=O)O)C(=O)N1)C(=O)O [INT130AL] ({CH2CO}-Y[Pip]NP[Dap(Me)]L[Hyp]W[Dab][Trp(1-CH2COOH)][NMeNle][NMeNle]ECG[Pra]-OH; thioether N-14)
5,0.3 to 9.9,CCCC[C@H]1C(=O)N(C)[C@@H](CCCC)C(=O)N[C@@H](CCC(=O)O)C(=O)N[C@H](C(=O)N[C@@H](Cc2cn(CCC(NC(=O)CCCCCCCCCCCCCCCCC(=O)O)C(=O)O)nn2)C(=O)O)CSCC(=O)N[C@@H](Cc2ccc(O)cc2)C(=O)N(C)[C@@H](C)C(=O)N[C@@H](CC(N)=O)C(=O)N2CCC[C@H]2C(=O)N[C@@H](CN)C(=O)N[C@@H](CC(C)C)C(=O)N2C[C@H](O)C[C@H]2C(=O)N[C@@H](Cc2c[nH]c3ccccc23)C(=O)N[C@@H](CCN)C(=O)N[C@@H](Cc2cn(CC(=O)O)c3ccccc23)C(=O)N1C (stereo partly shown) [Example 13130]
